This note sets out measurements from ChEMBL document CHEMBL3217449 (Medchemcomm, 2010).

Converted amounts (≈) assume the structure as drawn. Some results are limits rather than exact numbers.

The nature of data set [1]: Metabolic stability in human liver microsomes assessed as extraction ratio. The note with it: read-out: ERH. The format is ADME. (In general: Microsomes from liver hold many membrane-bound enzymes, among them those of drug oxidation.)
Data set [2] is described as follows: Kinetic solubility of the compound. The format is physicochemical. The note with it: read-out: Kinetic_solubility.
For data set [3], the target named is Phosphatidylinositol 4,5-bisphosphate 3-kinase catalytic subunit alpha isoform (Mus musculus, UniProt P42337). The experiment in a line: Inhibition of mouse PI3K alpha expressed in insect cells coexpressing p85 subunit assessed as PI(3,4,5)P3 formation using PI(4,5)P2 as substrate by measuring displacement of TAMRA-labeled PI(3,4,5)P3 from Grip1 PH domain after 35 mins by ligand displacement fluorescence polarization assay.

For data set [4], the target named is Serine/threonine-protein kinase mTOR (Homo sapiens, UniProt P42345).
In data set [5] the test system is Rattus norvegicus. The experiment in a line: Drug metabolism in iv dosed rat plasma assessed as 2-amino-8-((cis)-4-hydroxycyclohexyl)-6-(6-methoxypyridin-3-yl)-4-methylpyrido[2,3-d]pyrimidin-7(8H)-one level. The format is ADME, organism-based. To be noted: in vivo.
Data set [6] concerns Mus musculus. Description: Drug metabolism in po dosed mouse plasma assessed as 2-amino-8-((cis)-4-hydroxycyclohexyl)-6-(6-methoxypyridin-3-yl)-4-methylpyrido[2,3-d]pyrimidin-7(8H)-one level. The format is ADME, organism-based. To be noted: in vivo.
A short description of data set [7]: Inhibition of AKT phosphorylation at S473 in human BT20 cells after 1 hr by sandwich ELISA. In kind it is cell-based. The note with it: BT-20, 1 h.
A short description of data set [8]: Volume of distribution at steady state in rat at 2 mg/kg, iv and 5 mg/kg, po by LC-MS/MS analysis. The format is ADME, organism-based. The note with it: in vivo, read-out: Vdss.
Data set [9] is described as follows: Inhibition of AKT phosphorylation at S473 in human SKOV3 cells after 1 hr by sandwich ELISA. To be noted: SK-OV-3, 1 h. In kind it is cell-based.
Data set [10] in a line: Clearance in rat at 2 mg/kg, iv and 5 mg/kg, po by LC-MS/MS analysis. The format is ADME, organism-based. The note with it: in vivo.
Data set [11] deals with Rattus norvegicus. The experiment in a line: Unbound clearance in rat at 2 mg/kg, iv and 5 mg/kg, po by LC-MS/MS analysis. The format is ADME, organism-based. To be noted: in vivo.
Data set [12] in a line: Unbound fraction in rat plasma at 2 mg/kg, iv and 5 mg/kg, po by LC-MS/MS analysis. In kind it is ADME, organism-based.
Data set [13] is described as follows: Half life in rat at 2 mg/kg, iv and 5 mg/kg, po by LC-MS/MS analysis. The format is ADME, organism-based. The note with it: in vivo.
Data set [14] can be described thus: Drug absorption in rat. In kind it is ADME, organism-based. To be noted: in vivo, read-out: Drug absorption.
For data set [15], the system named is Mus musculus. Description: Drug metabolism in po dosed mouse plasma assessed as 2-amino-8-((trans)-4-hydroxycyclohexyl)-6-(6-methoxypyridin-3-yl)-4-methylpyrido[2,3-d]pyrimidin-7(8H)-one level. The note with it: in vivo. In kind it is ADME, organism-based.
Data set [16] has as its system Rattus norvegicus. Description: Drug metabolism in iv dosed rat plasma assessed as 2-amino-8-((trans)-4-hydroxycyclohexyl)-6-(6-methoxypyridin-3-yl)-4-methylpyrido[2,3-d]pyrimidin-7(8H)-one level. The format is ADME, organism-based. To be noted: in vivo.

Sequence of Phosphatidylinositol 4,5-bisphosphate 3-kinase catalytic subunit alpha isoform (P42337 whole entry, the tested form may be a part, canonical isoform): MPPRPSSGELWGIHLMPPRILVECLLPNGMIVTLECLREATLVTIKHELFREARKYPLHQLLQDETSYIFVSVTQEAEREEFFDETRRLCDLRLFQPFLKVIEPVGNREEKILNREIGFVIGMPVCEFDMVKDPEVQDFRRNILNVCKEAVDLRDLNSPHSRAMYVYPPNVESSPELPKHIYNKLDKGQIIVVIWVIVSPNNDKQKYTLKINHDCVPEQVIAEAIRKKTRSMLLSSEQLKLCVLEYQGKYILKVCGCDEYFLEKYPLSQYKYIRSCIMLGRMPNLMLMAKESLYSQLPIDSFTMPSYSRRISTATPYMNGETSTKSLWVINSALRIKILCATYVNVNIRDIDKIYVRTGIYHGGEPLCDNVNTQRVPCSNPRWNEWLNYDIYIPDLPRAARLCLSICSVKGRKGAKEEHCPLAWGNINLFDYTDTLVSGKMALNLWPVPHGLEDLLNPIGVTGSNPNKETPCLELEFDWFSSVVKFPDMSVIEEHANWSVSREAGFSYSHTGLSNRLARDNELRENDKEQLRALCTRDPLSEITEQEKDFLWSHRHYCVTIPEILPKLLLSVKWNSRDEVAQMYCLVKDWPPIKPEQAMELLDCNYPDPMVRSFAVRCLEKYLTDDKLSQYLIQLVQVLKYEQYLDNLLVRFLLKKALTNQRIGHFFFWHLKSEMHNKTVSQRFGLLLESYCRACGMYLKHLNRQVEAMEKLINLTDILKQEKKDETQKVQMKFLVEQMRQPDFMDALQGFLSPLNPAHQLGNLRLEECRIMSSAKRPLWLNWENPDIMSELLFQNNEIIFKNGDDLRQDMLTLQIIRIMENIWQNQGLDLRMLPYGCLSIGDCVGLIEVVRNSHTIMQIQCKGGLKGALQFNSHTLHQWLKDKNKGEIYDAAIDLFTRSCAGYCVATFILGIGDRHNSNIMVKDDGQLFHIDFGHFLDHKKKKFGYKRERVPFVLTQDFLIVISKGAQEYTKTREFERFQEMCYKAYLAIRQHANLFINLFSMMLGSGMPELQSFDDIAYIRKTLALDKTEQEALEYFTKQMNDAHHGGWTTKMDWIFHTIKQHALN

For the molecule `COc1ccc(-c2cc3c(C)nc(N)nc3n(C3CCOCC3)c2=O)cn1`, in data set [1], the hepatic extraction ratio was less than 0.26. For the same molecule, the solubility kinetic in [2] is 40 µM (≈ 14.7 µg/mL). Besides, the Ki (as a rule, a dissociation constant, usually derived from enzyme kinetics or from competition with a known ligand) was 0.0036 µM in data set [3] and 0.11 µM in data set [4].

On to `COc1ccc(-c2cc3c(C)nc(N)nc3n([C@H]3CC[C@H](O)CC3)c2=O)cn1`, for which the hepatic extraction ratio in data set [1] was less than 0.25. Further, in data set [2], the solubility kinetic was 16 µM (≈ 6.1 µg/mL). Moreover, the Stability result in [5] and in data set [6] was “Unstable” throughout. In addition, the Ki was determined as 0.0009 µM in [3] and 0.017 µM in data set [4]. Also, 0.012 µM corresponded to half-maximal inhibition in data set [7] (IC50).

Consider `COc1ccc(-c2cc3c(C)nc(N)nc3n(C3CCOC3)c2=O)cn1` (stereo not given), for which the hepatic extraction ratio in data set [1] was less than 0.26. Also, the solubility kinetic in data set [2] was 144 µM (≈ 50.9 µg/mL). The Ki in [3] came out at 0.0066 µM; in [4], 0.15 µM.

On to `Cc1nc(N)nc2c1cc(-c1cccc(CO)c1)c(=O)n2C1CCCC1`, for which the Ki in data set [3] is 0.0012 µM; in [4], 0.082 µM.

Take `COc1ccc(-c2cc3c(C)nc(N)nc3n([C@H]3CC[C@H](OCCO)CC3)c2=O)cn1` [PF-04691502]: the Vd in data set [8] is 1.39 L/kg. In addition, the solubility kinetic in [2] is 14 µM (≈ 5.96 µg/mL). In addition, the IC50 (commonly the midpoint of a concentration-inhibition curve) in [9] was 0.0074 µM; in data set [7], 0.013 µM. Further, the clearance in data set [10] came to 5.2 mL/min/kg. The molecule further had a CL free in data set [11] of 25.9 mL/min/kg. Also, the fraction unbound (usually the share of the substance not bound to proteins or other matrix) in data set [12] amounted to 0.202. The half-life (in general, how long it takes for the measured level to halve) in [13] is 3.1 h.

Take `COc1ccc(-c2cc3c(C)nc(N)nc3n(C3CCCC3)c2=O)cn1`: in data set [1], the hepatic extraction ratio is less than 0.25. For the same molecule, the Fa in [14] worked out at 28%. Further, the solubility kinetic in [2] was found to be 3.9 µM (≈ 1.37 µg/mL). Further, the results for the Ki in data set [3] and in data set [4] were 0.0014 µM and 0.2 µM, respectively. The molecule also registered an IC50 in [7] of 0.016 µM.

As for `CNc1nc(C)c2cc(-c3ccc(OC)nc3)c(=O)n(C3CCCC3)c2n1`, the Ki stood at 0.0011 µM in data set [3] and 0.7 µM in [4].

Consider `CNc1nc(C)c2cc(-c3cccc(CO)c3)c(=O)n(C3CCCC3)c2n1`, for which the hepatic extraction ratio in data set [1] was 0.68. Besides, in data set [2], the solubility kinetic was determined as 65 µM (≈ 23.7 µg/mL). For the same molecule, the Ki in [3] came out at 0.0014 µM; in data set [4], 0.84 µM. This molecule showed an IC50 in data set [7] of 0.015 µM.

On to `COc1ccc(-c2cc3c(C)nc(N)nc3n([C@H]3CC[C@@H](O)CC3)c2=O)cn1`, for which the hepatic extraction ratio in data set [1] is less than 0.26. Moreover, the Stability entry in [15] and in data set [16] was “Unstable” throughout. For the same molecule, the solubility kinetic in data set [2] stood at 60 µM (≈ 22.9 µg/mL). Also, the Ki in [3] came out at 0.003 µM; in data set [4], 0.09 µM. In data set [7], this molecule showed a half-inhibitory concentration (IC50) of 0.022 µM.
